From patent US10160755B2 (Plexxikon Inc., priority 2015, dated 2018)

Target: T1, BA/F3-FLT3-ITD + F691L cells (Homo sapiens, UniProt P36888, F691L, cells depend on it, form not given)
T1 sequence (P36888 1-993 F691L): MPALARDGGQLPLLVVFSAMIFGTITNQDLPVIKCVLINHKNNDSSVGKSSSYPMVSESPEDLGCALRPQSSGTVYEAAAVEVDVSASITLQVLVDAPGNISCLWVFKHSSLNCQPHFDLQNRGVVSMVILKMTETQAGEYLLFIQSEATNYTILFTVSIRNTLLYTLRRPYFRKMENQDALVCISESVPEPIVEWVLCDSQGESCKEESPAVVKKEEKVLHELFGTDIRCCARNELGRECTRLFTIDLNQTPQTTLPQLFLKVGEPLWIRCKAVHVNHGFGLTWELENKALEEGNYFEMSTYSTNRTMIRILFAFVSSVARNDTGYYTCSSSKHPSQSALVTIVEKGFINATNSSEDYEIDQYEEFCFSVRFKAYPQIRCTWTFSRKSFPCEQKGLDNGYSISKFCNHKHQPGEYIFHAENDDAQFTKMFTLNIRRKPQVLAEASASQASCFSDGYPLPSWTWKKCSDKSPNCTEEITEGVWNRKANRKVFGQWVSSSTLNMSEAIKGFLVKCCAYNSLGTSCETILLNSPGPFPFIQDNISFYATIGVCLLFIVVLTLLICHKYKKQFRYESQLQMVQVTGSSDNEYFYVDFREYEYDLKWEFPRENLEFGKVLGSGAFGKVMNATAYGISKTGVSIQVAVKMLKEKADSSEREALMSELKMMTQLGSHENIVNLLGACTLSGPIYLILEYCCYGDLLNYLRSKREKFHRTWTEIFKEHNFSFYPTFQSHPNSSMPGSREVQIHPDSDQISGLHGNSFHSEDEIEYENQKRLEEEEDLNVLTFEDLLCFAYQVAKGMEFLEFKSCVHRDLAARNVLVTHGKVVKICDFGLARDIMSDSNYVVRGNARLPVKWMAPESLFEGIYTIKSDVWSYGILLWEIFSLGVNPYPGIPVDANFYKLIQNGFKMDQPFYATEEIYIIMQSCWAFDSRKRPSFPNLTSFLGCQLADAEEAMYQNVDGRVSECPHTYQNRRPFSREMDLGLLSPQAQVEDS
Assay: BA/F3-FLT3-ITD + F691L cell proliferation assay (CellTiter-Glo)
Assay type: cell-based, murine
Details: BaF3 FLT3 ITD/F691L cells; read-out: Cell Activity (IC50 μM) BaF3_FLT3_ITD/F691L
Excerpt: The FLT3 inhibitors may also be assessed using leukemia cell lines that express endogenous FLT3-ITD or cells that are engineered to express wild-type or mutant FLT3. The cells expressing endogenous FLT3 are dependent upon FLT3 catalytic activity for growth. For the engineered cells, murine BA/F3 cells were transfected with full-length FLT3 (either wild-type, or containing the ITD, D835Y, or F691L mutations, as noted). The parental BA/F3 cells are dependent upon Interleukin-3 (IL-3) for survival, and introduction of the FLT3 constructs renders these cells dependent upon FLT3 kinase activity when cultured in the absence of IL-3. Engineered BA/F3 cell growth assays can be performed in either the absence or presence of IL-3, to assess the compound inhibition of FLT3 or to detect the presence of off-target activity, respectively. Inhibitors of FLT3 kinase activity reduce or eliminate the FLT3 oncogenic signaling, resulting in reduced cell proliferation. This inhibition is measured as a function of compound concentration to assess IC50 values.
Cells were seeded at 1×10^4 cells per well of a 96 well cell culture plate in 50 μl of cell culture medium. Compounds were dissolved in DMSO, typically at a concentration of 5 mM and were serially diluted 1:3 for a total of eight points and added to the cells to final concentrations of 10, 3.3, 1.1, 0.37, 0.12, 0.041, 0.014 and 0.0046 μM in 100 μl cell culture medium (final concentration 0.2% DMSO). […] The cells were incubated at 37° C., 5% CO2 for three days. CellTiter-Glo Buffer (Promega Cell Viability Assay catalog #G7573) and substrate were equilibrated to room temperature, and enzyme/substrate Recombinant Firefly Luciferase/Beetle Luciferin was reconstituted. The cell plates were equilibrated to room temperature for 30 minutes, then lysed by addition of an equivalent volume of the Celltiter-Glo Reagent. The plate was mixed for 10 minutes on a plate shaker to lyse the cells. The plates were read on a Tecan M1000 using Luminescence protocol modified to read 0.1 s per well. The luminescence reading assesses the ATP content, which correlates directly with cell number such that the reading as a function of compound concentration was used to determine the IC50 value.

Row | SMILES | GI50
1 | N#Cc1cc(-c2cnc3[nH]cc(-c4ccc5ncn(C6CCCNC6)c5c4)c3c2)ccc1F (centres unmarked) [P-208, 2-fluoro-5-[3-[3-(3-piperidyl)benzimidazol-5-yl]-1H-pyrrolo[2,3-b]pyridin-5-yl]benzonitrile] | 0.0001 to 1 µM
2 | COc1ncc(-c2cnc3[nH]cc(-c4ccc5ncn(C(C)(C)C)c5c4)c3c2)cn1 [P-265, 1-(tert-butyl)-6-(5-(2-methoxypyrimidin-5-yl)-1H-pyrrolo[2,3-b]pyridin-3-yl)-1H-benzo[d]imidazole] | 0.0001 to 1 µM
3 | CN(c1cccc(-c2cnc3[nH]cc(-c4ccc5ncn(C)c5c4)c3c2)c1)S(C)(=O)=O [P-120, N-methyl-N-[3-[3-(3-methylbenzimidazol-5-yl)-1H-pyrrolo[2,3-b]pyridin-5-yl]phenyl]methanesulfonamide] | 0.0001 to 1 µM
4 | COc1cnc2[nH]cc(-c3ccc4ncn(-c5ccc(Cl)cc5)c4c3)c2c1 [P-104, 1-(4-chlorophenyl)-6-(5-methoxy-1H-pyrrolo[2,3-b]pyridin-3-yl)benzimidazole] | 0.0001 to 1 µM
5 | CC(C)(C)n1cnc2ccc(-c3c[nH]c4ncc(C#Cc5cccc(C#N)c5)cc34)cc21 [P-242, 3-[2-[3-(3-tert-butylbenzimidazol-5-yl)-1H-pyrrolo[2,3-b]pyridin-5-yl]ethynyl]benzonitrile] | 1 to 10 µM
6 | CC(C)(CO)n1cnc2ccc(-c3c[nH]c4ncc(-c5cccc(NS(C)(=O)=O)c5)nc34)cc21 [P-115, N-[3-[7-[3-(2-hydroxy-1,1-dimethyl-ethyl)benzimidazol-5-yl]-5H-pyrrolo[2,3-b]pyrazin-2-yl]phenyl]methanesulfonamide] | 0.0001 to 1 µM
7 | COc1cc(-c2cnc3[nH]cc(-c4ccc5ncn(C6CCCN(C)C6)c5c4)c3n2)ccn1 (centres unmarked) [P-271, 2-(2-methoxy-4-pyridyl)-7-[3-(1-methyl-3-piperidyl)benzimidazol-5-yl]-5H-pyrrolo[2,3-b]pyrazine] | 0.0001 to 1 µM
8 | CC(C)(C)n1cnc2ccc(-c3c[nH]c4ncc(-c5cccc(S(=O)(=O)N6CCCC6)c5)cc34)cc21 [P-220, 1-tert-butyl-6-[5-(3-pyrrolidin-1-ylsulfonylphenyl)-1H-pyrrolo[2,3-b]pyridin-3-yl]benzimidazole] | 0.0001 to 1 µM
9 | CC(C)n1cnc2ccc(-c3c[nH]c4ncc(-c5cnn(C(F)F)c5)cc34)cc21 [P-267, 5-[1-(difluoromethyl)pyrazol-4-yl]-3-(3-isopropylbenzimidazol-5-yl)-1H-pyrrolo[2,3-b]pyridine] | 0.0001 to 1 µM
10 | CC(C)S(=O)(=O)Nc1cccc(-c2cnc3[nH]cc(-c4ccc5ncn(C6CCCNC6)c5c4)c3c2)c1 (centres unmarked) [P-215, N-[3-[3-[3-(3-piperidyl)benzimidazol-5-yl]-1H-pyrrolo[2,3-b]pyridin-5-yl]phenyl]propane-2-sulfonamide] | 0.0001 to 1 µM
11 | O=S1(=O)CCCCN1c1cccc(-c2cnc3[nH]cc(-c4ccc5ncn(C6CCCNC6)c5c4)c3n2)c1 (centres unmarked) [P-253, 2-[3-[7-[3-(3-piperidyl)benzimidazol-5-yl]-5H-pyrrolo[2,3-b]pyrazin-2-yl]phenyl]thiazinane 1,1-dioxide] | 0.0001 to 1 µM
12 | O=C(Nc1cccc(F)c1)c1cnc2[nH]cc(-c3ccc4ncn(C5CCCNC5)c4c3)c2c1 (centres unmarked) [P-178, N-(3-fluorophenyl)-3-[3-(3-piperidyl)benzimidazol-5-yl]-1H-pyrrolo[2,3-b]pyridine-5-carboxamide] | 0.0001 to 1 µM
13 | c1cc(-c2cnc3[nH]cc(-c4ccc5ncn(C6CCCNC6)c5c4)c3c2)cc(N2CCOCC2)n1 (centres unmarked) [P-223, 4-[4-[3-[3-(3-piperidyl)benzimidazol-5-yl]-1H-pyrrolo[2,3-b]pyridin-5-yl]-2-pyridyl]morpholine] | 0.0001 to 1 µM
14 | COc1ncc(-c2cnc3[nH]cc(-c4ccc5ncn(C(C)(C)C)c5c4)c3n2)cn1 [P-263, 7-(3-tert-butylbenzimidazol-5-yl)-2-(2-methoxypyrimidin-5-yl)-5H-pyrrolo[2,3-b]pyrazine] | 0.0001 to 1 µM
15 | CC(C)(C)n1cnc2ccc(-c3c[nH]c4ncc(-c5cccc(N6CCCS6(=O)=O)c5)nc34)cc21 [P-231, 2-[3-[7-(3-tert-butylbenzimidazol-5-yl)-5H-pyrrolo[2,3-b]pyrazin-2-yl]phenyl]-1,2-thiazolidine 1,1-dioxide] | 0.0001 to 1 µM
16 | CC(C)(C)n1cnc2ccc(-c3c[nH]c4ncc(-c5cccc(N6CCCCS6(=O)=O)c5)nc34)cc21 [P-227, 2-[3-[7-(3-tert-butylbenzimidazol-5-yl)-5H-pyrrolo[2,3-b]pyrazin-2-yl]phenyl]thiazinane 1,1-dioxide] | 0.0001 to 1 µM
17 | CC(C)(C)n1cnc2ccc(-c3c[nH]c4ncc(-c5cccc(S(=O)(=O)N6CCCC6)c5)nc34)cc21 [P-229, 7-(3-tert-butylbenzimidazol-5-yl)-2-(3-pyrrolidin-1-ylsulfonylphenyl)-5H-pyrrolo[2,3-b]pyrazine] | 0.0001 to 1 µM
18 | CC(C)(C)n1cnc2ccc(-c3c[nH]c4ncc(-c5cnn(CC(F)(F)F)c5)cc34)cc21 [P-252, 1-tert-butyl-6-[5-[1-(2,2,2-trifluoroethyl)pyrazol-4-yl]-1H-pyrrolo[2,3-b]pyridin-3-yl]benzimidazole] | 0.0001 to 1 µM
19 | CC(C)S(=O)(=O)Nc1cccc(-c2cnc3[nH]cc(-c4ccc5ncn(C(C)(C)C)c5c4)c3n2)c1 [P-232, N-[3-[7-(3-tert-butylbenzimidazol-5-yl)-5H-pyrrolo[2,3-b]pyrazin-2-yl]phenyl]propane-2-sulfonamide] | 0.0001 to 1 µM
20 | Cn1cnc2ccc(-c3c[nH]c4ncc(-c5cnn(CC(F)(F)F)c5)cc34)cc21 [P-175, 1-methyl-6-[5-[1-(2,2,2-trifluoroethyl)pyrazol-4-yl]-1H-pyrrolo[2,3-b]pyridin-3-yl]benzimidazole] | 0.0001 to 1 µM
21 | CC(C)(C)n1cnc2ccc(-c3c[nH]c4ncc(-c5cccc(N6CCOCC6)c5)nc34)cc21 [P-226, 4-[3-[7-(3-tert-butylbenzimidazol-5-yl)-5H-pyrrolo[2,3-b]pyrazin-2-yl]phenyl]morpholine] | 0.0001 to 1 µM
22 | CCCS(=O)(=O)Nc1cccc(-c2cnc3[nH]cc(-c4ccc5ncn(C(C)(C)C)c5c4)c3c2)c1 [P-216, N-[3-[3-(3-tert-butylbenzimidazol-5-yl)-1H-pyrrolo[2,3-b]pyridin-5-yl]phenyl]propane-1-sulfonamide] | 0.0001 to 1 µM
23 | CC(C)n1cnc2ccc(-c3c[nH]c4ncc(-c5cnn(CC(F)(F)F)c5)cc34)cc21 [P-268, 1-isopropyl-6-[5-[1-(2,2,2-trifluoroethyl)pyrazol-4-yl]-1H-pyrrolo[2,3-b]pyridin-3-yl]benzimidazole] | 0.0001 to 1 µM
24 | C#Cc1cnc2[nH]cc(-c3ccc4ncn(C(C)(C)C)c4c3)c2c1 [P-244, 1-tert-butyl-6-(5-ethynyl-1H-pyrrolo[2,3-b]pyridin-3-yl)benzimidazole] | 0.0001 to 1 µM
25 | COc1cnc2[nH]cc(-c3ccc4ncn(-c5ccc(F)c(C)c5)c4c3)c2c1 [P-129, 1-(4-fluoro-3-methyl-phenyl)-6-(5-methoxy-1H-pyrrolo[2,3-b]pyridin-3-yl)benzimidazole] | 0.0001 to 1 µM
26 | N#Cc1cccc(-c2cnc3[nH]cc(-c4ccc5ncn(-c6ccc(F)c(Cl)c6)c5c4)c3c2)c1 [P-210, 3-[3-[3-(3-chloro-4-fluoro-phenyl)benzimidazol-5-yl]-1H-pyrrolo[2,3-b]pyridin-5-yl]benzonitrile] | 0.0001 to 1 µM
